Source: patent US6057450A, “Derivatives of pyroglutaminic acid preparation process and applications” (Totiam, S.L., priority 1994, dated 2000)

B1: rhG-CSF: recombinant human Granulocyte Colony Stimulating Factor (protein, UniProt P09919 31-207, looked up)
Granulocyte …: TPLGPASSLPQSFLLKCLEQVRKIQGDGAALQEKLVSECATYKLCHPEELVLLGHSLGIPWAPLSSCPSQALQLAGCLSQLHSGLFLYQGLLQALEGISPELGPTLDTLQLDVADFATTIWQQMEELGMAPALQPTQGAMPAFASAFQRRAGGVLVASHLQSFLEVSYRVLRHLAQP

Tests used:
[1] = system: Swiss mice; test: single-dose intraperitoneal toxicity in mice; settings: i.p. single dose; 236 (Cl) 800 mcg/Kg, 278 (Ac) 4.2 mg/Kg, 320 (Ac) 4.8 mg/Kg, respectively
[2] = system: human lymphocytes; test: in vitro non-specific lymphoproliferative response (RLP-I) to PHA, human lymphocyte cultures; format: cell-based; settings: for RLP-I B < A, number of witness models / RLP-I B < A, percentage of witness models / RLP-I B > A, number of witness models / RLP-I B > A, percentage of witness models: Table V, PHA + BRM-BLAS (B) versus PHA (A); for number of cases with RLP-I B > A in 33-50% of the witness models / number of cases with RLP-I B > A in 67% of the witness models / number of cases with RLP-I B > A in 100% of the witness models / percentage of cases with RLP-I B > A in 33-50% of the witness models / percentage of cases with RLP-I B > A in 67% of the witness models / percentage of cases with RLP-I B > A in 100% of the witness models: Table VI, intragroup individual analysis
Method: The "in vitro" lymphocyte response has been assessed in samples of circulating and peripheral venous blood from asymptomatic blood donor adults of both sexes. In general, the lymphocyte cultures include in each case six experimental models called witnesses, and incorporate progressive doses between 0.25-6.0 units (20-500 ng) of the BRM-BLAS compounds and PHA. The RLP-I of each one has been morphologically determined and is expressed in absolute values of lymphoblasts/10,000.
Systematically, in all the cases it has been tabulated the RLP-I to the PHA, basal, of the PHA models; to the PHA+BRM-BLAS, of the "witness" models and the maximum individual response of the witness models (RMC), in each case.

[3] = system: circulating peripheral blood leukocytes; test: in vivo leukocyte kinetics / response in asymptomatic rabbits; parameters: species or system New Zealand's albino, giant rabbits
Description: (§1) The pharmacodynamic study to assess the leuko-lymphocyte kinetics has been carried out in New Zealand's albino, giant, female, adult, asymptomatic (healthy) rabbits. The blood samples with EDTA (ethylene-diamino-tetraAcetic acid), non-coagulable, for the periodical weekly controls, have been obtained by aseptic puncture from the marginal vein of the outer ear. The count and the differential cytologic survey of the white series has been routinely performed in a "Coulter" (Coulter Cientifica, S.A., STKs model) differential analyzer, within the two hours following the extraction.
Hereinafter, there is a summary of the most significant results of the preclinical protocols which include different experimental conditions, different BRM-BLAS products and doses which vary in vary of their concentration of the product, frequency and number.
The leuko-lymphocyte mean values of the group run parallelly during the study, in general above the respective basal values before the treatment to which they return in the last two assessments. They reach the higher ones 7, 16 and 20 days after the first, second and third dose, FIG. 12, FIG. 13 and Table VIII (assessments: 3, 8 and 13).
A total number of 225 individual assessments and 45 of the group assessments have been performed, grouped in four evolutive periods moments. The "first" one includes the 40 individual assessments (8 of the group) after the two first doses, days 0 to 43rd; the "second", the 85 (17 of the group) after the third, fourth and fifth doses, days 46th to 147th; the "third", the first 50 (10 of the group) after the sixth, days 153rd to 213th, and the "fourth", the last 50 (10 of the group), days 220th to 282nd, respectively. The assessment of the group prior to the third dose (43rd day), the lymphocyte mean of which has been the lowest during the survey, has been taken as the natural reference baseline for the comparative analysis of punctual and grouped data.
This trail is subsequent to the protocol previously described and corresponds to the "fifth" moment of the global study, FIG. 14 and FIG. 15.
After the subcutaneous administration of a dose of 30 u/Kg (2.1 mcg/Kg) of the BRM-BLAS 278 (Cl) compounds 137 days after the sixth dose of the BRM-BLAS 320 (Ac) compounds, in the presence of high figures of the lymphocyte mean of the group, at the "fourth" moment, such figures were specifically exceeded by the 4th and 5th punctual weekly assessments of the "fifth" moment, 24th (184%) and 31st (180%) days, respectively, FIG. 14. Globally, 28% of the assessment exceed basal values by one or two standard deviations; 57% in three, and the difference is statistically in all of them. The resulting mean of the data gathered for the "fifth" moment with a 158% of the basal values, exceed those of the four previous moments, and the difference is statistically significant compared with those of the "first", "second" and "third", and exceeds that of the "first" in more than one standard deviation, FIG. 15 and (Table IX). […]

[4] = system: circulating peripheral blood lymphocytes; test: in vivo lymphocyte kinetics / response in asymptomatic rabbits; parameters: species or system New Zealand's albino, giant rabbits
Description: as §1
Hereinafter, there is a summary of the most significant results of the preclinical protocols which include different experimental conditions, different BRM-BLAS products and doses which vary in vary of their concentration of the product, frequency and number. […]
This study comprises three concatenated experimental situations. The first one is focused on the vicissitudes of the leuko-lymphocyte kinetics occurred during a pause, "first" moment, that takes place months after several doses, mainly of BRM-BLAS 236 (Cl) compounds and includes 30 individual assessments (6 of the group) days 0 to 39. The second "second" moment, is centered on the successive changes occurred after the administration on the 39th day of an intravenous dose of 8 u/Kg (0.6 mcg/Kg) of the BRM-BLAS 278 (Ac) compounds and includes a total of 25 individual assessments (5 of the group), days 43rd to 68th. The third one, moments "third" to "seventh", analyzes the changes induced after the intravenous administration on the 68th day of 22 u/Kg (1.8 mcg/Kg) of BRM-BLAS 320 (Ac) compounds and includes […] (6 of the group×5 times), days 75th to 287th of the study. The assessment prior to the last dose, the lymphocyte average of which is the lowest of the group during the study, has been selected as the common baseline (100%) for reference of the comparative analysis between the assessments.

[5] = system: patients; settings: cited from earlier work; for effect on circulating granulocytes: cancer patients in the absence of a myelodepression
[6] = three i.v. doses 5 U/Kg (300 ng/Kg) every 21 days, assessment 8, 37th day
[7] = three i.v. doses 5 U/Kg every 21 days

| Molecule | tolerance / toxicity, single dose [1] | RLP-I B < A, number of witness models [2] [Num.] | RLP-I B < A, percentage of witness models [2] [%] | RLP-I B > A, number of witness models [2] [Num.] | RLP-I B > A, percentage of witness models [2] [%] | number of cases with RLP-I B > A in 33-50% of the witness models [2] [Num.] | number of cases with RLP-I B > A in 67% of the witness models [2] [Num.] | number of cases with RLP-I B > A in 100% of the witness models [2] [Num.] | percentage of cases with RLP-I B > A in 33-50% of the witness models [2] [%] | percentage of cases with RLP-I B > A in 67% of the witness models [2] [%] | percentage of cases with RLP-I B > A in 100% of the witness models [2] [%] | effect on circulating granulocytes [5] | other results |
| --- | --- | --- | --- | --- | --- | --- | --- | --- | --- | --- | --- | --- | --- |
| NC1(C[n+]2ccccc2)CC(C(=O)O)NC1=O (centres unmarked) [BRM-BLAS 236 (Cl), 4-ammonium-4-(1-pyridiniomethyl) pyroglutamic acid dichloride] | perfectly tolerated without evidences of toxicity | 20 | 30 | 46 | 70 | 11 | 9 | 2 | 100 | 82 | 18 | – | highest leukocyte mean value versus basal [3, 6]: 169%; assessments with leukocyte mean above basal by more than three standard deviations [3, 7]: 5%; assessments with leukocyte mean above basal by more than two standard deviations [3, 7]: 20%; assessments with leukocyte mean above basal over the standard deviation [3, 7]: 55%; assessments with statistically significant difference of leukocytes versus basal [3, 7]: 70%; leukocyte response [3, 7]: increase in the number of leukocytes which affect granulocytes as well as lymphocytes in the same way; time to higher leuko-lymphocyte mean values after first dose ([3]; three i.v. doses 5 U/Kg every 21 days, first dose): 7 days; leuko-lymphocyte mean of "first" period versus "fourth" period and basal ([3]; three i.v. doses 5 U/Kg every 21 days, grouped results): practically by two standard deviations; time to higher leuko-lymphocyte mean values after second dose ([3]; three i.v. doses 5 U/Kg every 21 days, second dose): 16 days; time to higher leuko-lymphocyte mean values after third dose ([3]; three i.v. doses 5 U/Kg every 21 days, third dose): 20 days; highest lymphocyte mean value versus basal [4, 6]: 157%; assessments with lymphocyte mean above basal by more than three standard deviations [4, 7]: 10%; assessments with lymphocyte mean above basal by more than two standard deviations [4, 7]: 20%; assessments with lymphocyte mean above basal over the standard deviation [4, 7]: 75%; assessments with statistically significant difference of lymphocytes versus basal [4, 7]: 35% |
| CC(=O)N1C(=O)C(N)(C[n+]2ccccc2)CC1C(=O)O (centres unmarked) [BRM-BLAS 278 (Ac), 1-acetyl-4-amino-4-(1-pyridiniomethyl) pyroglutamic acid acetate] | perfectly tolerated without evidences of toxicity | 14 | 26 | 40 | 74 | 9 | 6 | 3 | 100 | 67 | 33 | – | lymphocyte group mean after low dose ([4]; single i.v. low dose 8 u/Kg (0.6 mcg/Kg), fifth assessment): the group mean in the fifth assessment appears in the basal line of the histogram |
| CC(=O)N1C(=O)C(N)(C[n+]2ccccc2)CC1C(=O)O (centres unmarked) [BRM-BLAS 278 (Cl), 1-acetyl-4-ammonium-4-(1-pyridiniomethyl) pyroglutamic acid dichloride] | – | 16 | 17 | 77 | 83 | 16 | 13 | 6 | 100 | 81 | 37 | – | animals with leukocyte mean at "fifth" exceeding "first" moment by more than two standard deviations ([3]; s.c. 30 u/Kg): 40%; assessments with leukocyte mean exceeding basal by one standard deviation ([3]; s.c. 30 u/Kg, "fifth" moment): 57%; assessments with statistically significant leukocyte difference ([3]; s.c. 30 u/Kg, "fifth" moment): 29%; animals with lymphocyte mean "fifth" versus "first" moment higher than three standard deviations ([4]; s.c. 30 u/Kg): 80%; animals with lymphocyte mean "fifth" versus "first" moment higher than two standard deviations ([4]; s.c. 30 u/Kg): 20%; grouped lymphocyte mean versus basal, "fifth" moment ([4]; s.c. 30 u/Kg, "fifth" moment): 158%; lymphocyte mean versus basal, 24th day ([4]; s.c. dose 30 u/Kg (2.1 mcg/Kg) 137 days after BRM-BLAS 320 (Ac), 24th day, "fifth" moment): 184%; lymphocyte mean versus basal, 31st day ([4]; s.c. dose 30 u/Kg (2.1 mcg/Kg) 137 days after BRM-BLAS 320 (Ac), 31st day, "fifth" moment): 180% |
| rhMG-CSF: recombinant human Macrophage Granulocyte Colony Stimulating Factor | – | – | – | – | – | – | – | – | – | – | – | neutrophiles and eosinophile | duration of the neutropenia ([5]; administration prior to chemotherapy): notably reduces the duration of the neutropenia; side effects ([5]; human, in vivo): fever, bone ache, pericarditis, hypotension; deaths from sepsis ([5]; patients who received rhMG-CSF): 2 out of 14; systemic bacterial and viral infections ([5]; severe chronic neutropenia or after transplant of bone marrow): drastically decreases systemic bacterial and viral infections |
| B1 | – | – | – | – | – | – | – | – | – | – | – | great increase in the number of circulating (peripheral blood) polymorphonuclear neutrophile | – |
